Data from patent US20230405002A1, “COMBINATIONS OF DIACYLGLYCEROL ACYLTRANSFERASE 2 INHIBITORS AND ACETYL-COA CARBOXYLASE INHIBITOR” (Pfizer Inc., priority 2020, published 2023).

Key:
[1] = test system: ACC1, FASN, SCD1, PCSK9 and SREBP-1c; test: Compound A / Compound D study in Western diet fed rats: hepatic lipogenic gene expression (qPCR); type: in vivo, rat; conditions: relative to Western diet fed vehicle treated rats
Procedure: (§1) A randomized, vehicle-controlled, 8-parallel arm study was conducted in male Sprague-Dawley rats (Charles River (Boston, MA)) to obtain circulating and hepatic TG levels. Standard laboratory conditions were used to house 96 rats (˜200 g); they were double housed and kept under 12:12-hour reverse light-dark schedule (lights off at 8:00 AM). Rats were randomized into chow or Western diet groups and dose groups upon arrival and were given a 14-day lead-in period on either standard rat chow or Western diet prior to the start of the study. Standard Laboratory Rodent chow diet, 5053, was from LabDiet (PMI, St Louis, Missouri). Western Diet, D12079Bi, was from Research Diets (New Brunswick, NJ).
Another portion of the pulverized liver was processed and analyzed for lipogenic gene expression. Rat taqman probes against ACC1, FASN, SCD1, PCSK9 and SREBP-1c were all assessed using Actb as housekeeping gene on qPCR.

SREBP-1 = test: Compound A / Compound D study in Western diet fed rats: nuclear SREBP-1 localization (Western blot); type: in vivo, rat; conditions: high dose; relative to vehicle treated Western diet fed rats
Procedure: as §1
Nuclear and Membrane fractions were prepared by ultracentrifugation using standard methods from a portion of the pulverized liver samples, that were pooled per treatment group. Samples from the nuclear extract and the membrane fractions were analyzed by Western blotting for SREBP1. Western blots for Calnexin was used as a marker for the membrane fraction, actin as a marker for total sample loading, and Histone 2B as a marker for the nuclear fraction. Nuclear SREBP1 levels were quantified using relative units and normalized to Histone 2B to control for sample loss during the nuclear fractionation and gel loading.

[2] = test system: CDAHFD fed male Wistar-Han rats; test: CDAHFD rat study: liver histology (αSMA IHC, Picrosirius red, Iba1 staining); type: in vivo; conditions: Compound A 5 mg/kg, Compound D 30 mg/kg twice daily, 6 weeks
From the text: (§2) Standard laboratory conditions were used to house 60 rats (˜200 g); they were double housed and kept under 12:12-hour reverse light-dark schedule (lights off at 8:00 AM). Rats were fed choline deficient and high fat diet (CDAHFD) beginning 6-weeks prior to initiation of the study. […] Animals (n=12) remaining on normal chow throughout the study and administered twice-daily vehicle were used as a control group. Blood samples were collected prior to starting compound administration and 3- and 6-week post compound administration for the assessment of circulating markers. Shearwave elastography (Aixplorer Ultimate imager, Supersoinc imagine) measurements were made at Week −3, Week 0 (prior to 1st dose), Week 3 and Week 6 to assess inflammation and fibrosis progression over time. Histology was assessed following 6-weeks of drug administration which corresponded to 12 weeks on the CDAHFD. Results are provided as an average of animals per each dosing group.
Following the 12-weeks on CDAHFD, the animals were sacrificed by CO2 asphyxiation. The right lateral, medial and left lateral lobes of the liver were harvested. Sections were taken from the left lateral, right medial and right lateral lobes and fixed in formalin and processed to paraffin blocks per animal. One section of left lateral lobe per animal was cryopreserved in optimal cutting temperature (OCT) compound. The remainder of the liver from each animal was frozen and rapidly pulverized on an aluminum block cooled in liquid N2, ensuring the tissue remained frozen throughout the pulverization. The pulverized tissue was transferred and stored at −80° C. until analysis. A portion of the pulverized liver sample from each animal was processed and analyzed for gene expression markers of fibrogenesis. Rat taqman probes against αSMA and COL1A1 were all assessed using Actb as housekeeping gene on qPCR.
The following endpoints were evaluated by qualitative histologic evaluation by a board certified veterinary pathologist and quantitative histomorphometry: hepatic stellate cell activation and differentiation into myofibroblasts by αSMA immunohistochemistry (IHC); Collagen as a correlate of fibrosis by Picrosirius Red stain. Images were analyzed using Visiopharm software. Visiopharm applications with threshold parameters were applied uniformly to identify tissue sections and to quantify the targets on each IHC (DAB (3,3′-diaminobenzidine) positive) or histochemically stained slides as percent area: stain area of interest/Total tissue ROI−whitespace)×100%. Non-parametric statistics were used to analyze data from this study. Group values were reported as mean+/− the standard error of the mean.

[3] = test system: Western diet fed Sprague Dawley rats; test: Compound A / Compound D study in Western diet fed rats: fed and fasted plasma triglycerides; type: in vivo, rat; conditions: for increase in fasted plasma TG / reduction of fasted plasma TG: relative to vehicle administered Western diet fed rats; for increase in plasma TG in the fed state / reduction of plasma TG in the fed state: relative to vehicle-administered Western diet fed rats
Procedure: as §1
For these studies, vehicle was prepared to make a 0.5% (wt/volume) of methyl cellulose (MC, Sigma Aldrich, 274429) in deionized water.
Fed plasma analytes: Blood for determining fed plasma TG concentrations was collected 2 hours post dose (2 hours into the dark cycle) via lateral tail vein, transferred to BD Microtainer tubes coated with dipotassium ethylenediaminetetraacetic acid (K2EDTA) (PN365974), and centrifuged at 4° C. The resulting plasma samples were then analyzed on a Siemens Chemistry XPT clinical analyzer (Malven, PA) using Siemens triglycerides_2 assay reagents (ref 10335892).
Fasted plasma analytes: Blood for determining fasted plasma TG was collected after a 4 hour fast, 2 hours post-dose (2 hours into the dark cycle) via lateral tail vein, transferred to BD Microtainer tubes coated with K2EDTA (PN365974), and centrifuged at 4° C. The resulting plasma samples were then analyzed on a Siemens Chemistry XPT clinical analyzer (Malven, PA) using Siemens triglycerides 2 assay reagents (ref 10335892).

[4] = test system: CDAHFD fed male Wistar-Han rats; test: CDAHFD rat study: liver stiffness by shearwave elastography; type: in vivo; conditions: Compound A 5 mg/kg, Compound D 30 mg/kg twice daily, 6 weeks
From the text: as §2

αSMA and COL1A1 = test: CDAHFD rat study: hepatic αSMA and COL1A1 gene expression (qPCR); type: in vivo; conditions: Compound A 5 mg/kg, Compound D 30 mg/kg twice daily, 6 weeks
From the text: as §2
Following the 12-weeks on CDAHFD, the animals were sacrificed by CO2 asphyxiation. The right lateral, medial and left lateral lobes of the liver were harvested. […] A portion of the pulverized liver sample from each animal was processed and analyzed for gene expression markers of fibrogenesis. Rat taqman probes against αSMA and COL1A1 were all assessed using Actb as housekeeping gene on qPCR.

[5] = high dose (Compound A 10 mg/kg QD)
[6] = low dose (Compound A 1 mg/kg QD)

| SMILES | hepatic lipogenic gene expression (ACC1, FASN, SCD1, SREBP1, PCSK9) [1] | nuclear SREBP-1 localization (SREBP-1) | reduction of Iba1 staining [2] | reduction of Picosrius red (PSR) staining [2] [%] | reduction of αSMA staining [2] [%] | increase in fasted plasma TG [3, 5] [fold] | increase in plasma TG in the fed state [3, 5] [fold] | increase in fasted plasma TG [3, 6] [fold] | increase in plasma TG in the fed state [3, 6] [fold] | liver stiffness (shearwave elastography) [4] | hepatic αSMA and COL1A1 gene expression (αSMA and COL1A1) | reduction of plasma TG in the fed state ([3]; high dose (Compound A 10 mg/kg QD, Compound D 30 mg/kg BID)) [%] | reduction of fasted plasma TG ([3]; high dose (Compound D 30 mg/kg BID)) [%] | reduction of plasma TG in the fed state ([3]; low dose (Compound A 1 mg/kg QD, Compound D 5 mg/kg BID)) [%] | reduction of fasted plasma TG ([3]; low dose (Compound D 5 mg/kg BID)) [%] |
| --- | --- | --- | --- | --- | --- | --- | --- | --- | --- | --- | --- | --- | --- | --- | --- |
| COc1cc(C(=O)N2CCC3(CC2)CC(=O)c2c(cnn2C(C)C)C3)cc(-c2ccc(C(=O)O)cc2)n1 [Compound A, 4-(4-(1-isopropyl-7-oxo-1,4,6,7-tetrahydrospiro[indazole-5,4′-piperidine]-1′-carbonyl)-6-methoxypyridin-2-yl)benzoic acid] | trended to further increase | increased nuclear localization of SREBP-1 | 15% | 26 | 41 | 1.7 | 1.3 | 2.4 | 1.7 | reduced liver stiffness | reduced hepatic αSMA and COL1A1 gene expression |  |  |  |  |
| CCOc1cccnc1Oc1cncc(-c2ncc(C(=O)N[C@H]3CCOC3)cn2)c1 [Compound D, (S)-2-(5-((3-ethoxypyridin-2-yl)oxy)pyridin-3-yl)-N-(tetrahydrofuran-3-yl)pyrimidine-5-carboxamide] | decreased expression of all of the lipogenic genes | reduced SREBP-1 nuclear localization | did not alter Iba1 staining | 20 | 23 |  |  |  |  | reduced liver stiffness | reduced hepatic αSMA and COL1A1 gene expression | 63 | 35 | 55 | 20 |
